Test results reported in patent publication US8148347B2, “Inhibition of interaction of PSD93 and PSDS95 with nNOS and NMDA receptors” (The Johns Hopkins University, priority 2000, dated 2012).

Key:
Assay type in all cases: in vivo, rat
Male Sprague-Dawley rats [1] = experiment: tests of locomotor function (placing, grasping, righting reflex) and general behaviors; conditions: saline pretreatment + 1.25 μg NMDA intrathecal; five trials, mean (SD)
Method: The effects of ODNs on locomotor function were examined using the following methods.^52 The animals were organized randomly into six groups: control (saline); 12.5 antisense ODN; 25 μg antisense ODN; 50 μg antisense ODN; 50 μg sense ODN; 50 μg missense ODN. The rats were pretreated with ODNs or saline in the manner described above. On the fifth day, 10 μl of saline was injected intrathecally for each rat. In some saline or antisense ODN (50 μg)-treated rats, fresh NMDA solution (1.25 μg/10 μl) was injected intrathecally. The following tests were performed with the experimenter blind to which group was treated with the agents: (1) Placing reflex: The rat was held with the hind limbs slightly lower than the forelimbs, and the dorsal surfaces of the hind paws were brought into contact with the edge of a table. The experimenter recorded whether the hind paws were placed on the table surface reflexively; (2) Grasping reflex: The rat was placed on a wire grid and the experimenter recorded whether the hind paws grasped the wire on contact; (3) Righting reflex: The rat was placed on its back on a flat surface and the experimenter noted whether it immediately assumed the normal upright position. […] In addition, the rat general behaviors including spontaneous activity were observed.

Male Sprague-Dawley rats [2] = experiment: blood pressure and heart rate during isoflurane anesthesia; conditions: saline-treated group, intrathecal NMDA 1.25 μg
Source text: (§1) On the fifth day after saline or ODNs injection, each rat was placed in a clear plastic cone and anesthetized with 5% isoflurane in oxygen for three to five minutes. After tracheostomy, the trachea of each animal was intubated with a 16-gauge polyethylene catheter. The inspired isoflurane concentration was reduced to 2%, and the animals breathed spontaneously until cannulation of a carotid artery and a jugular vein with PE-50 tubing was accomplished. The isoflurane concentration was decreased further to 1.5%, and ventilation was controlled by a Harvard Animal Respirator (Harvard Apparatus, South Natick, Mass.) adjusted according to the measurement of arterial blood gases to maintain normal partial pressure of oxygen (PO2=91-94 mmHg), partial pressure of carbon dioxide (PCO2=33-41 mmHg) and pH (7.4-7.44). Electrocardiography and systolic and diastolic blood pressure were monitored using a Grass Polygraph (Astroumed Grass, Quincy, Mass.) and Gould Pressure Transducer (Gould, Cleveland, Ohio). Rectal temperature was maintained between 36.5 and 37.5° C. by use of a heating blanket and warming lights.
(§2) In some saline-treated rats, after initial baseline MAC determination, NMDA at the dose of 1.25 μg^38 or saline was injected intrathecally in a volume of 10 μl saline, followed by an injection of 10 μl saline to flush the catheter. Fresh NMDA solution was prepared for each experiment. […] At this isoflurane concentration, 10 min after the intrathecal injection of NMDA, the animals were tested again for reactivity to tail clamp. The concentration of isoflurane was increased, and response to tail clamp was checked every 12-15 min thereafter until a negative response was achieved. In some antisense ODN (50 μg)-treated rats, after initial MAC determination, NMDA or saline was also administered intrathecally. The MAC for isoflurane was again determined following the aforementioned procedures.

Male Sprague-Dawley rats [3] = experiment: radiant heat tail-flick test, baseline and NMDA-induced thermal hyperalgesia
Source text: To examine whether PSD-95/SAP90 was required for thermal hyperalgesia triggered through NMDA receptor activation, we made an antisense oligonucletide (OND) corresponding to the PDZ domain nucleotides 241 to 258 (5′-[…]-3′; SEQ ID NO: 1) of rat PSD-95/SAP90 mRNA, as well as the sense OND and missense OND (5′-[…]-3′; SEQ ID NO: 2). All of the ONDs were compared to the Gene Bank database (GenBank accession number M96853) and found not to be complementary to any registered nucleotide sequences. The effects of antisense, sense and missense ONDs on baseline and NMDA-induced tail-flick latencies were assessed. […] To identify that NMDA-induced thermal hyperalgesia was produced specifically through NMDA receptor activation but not non-NMDA receptor activation, we observed the effects of a selective NMDA receptor antagonist, MK-801, and a selective non-NMDA receptor antagonist, DNQX, on NMDA-induced facilitation of the tail-flick reflex. […] In addition, motor weakness or dysfunction was not observed in locomotor tests (including placing reflex, grasping reflex and righting reflex) in any of the treated animals including the antisense groups (data not shown).
Animal preparation and behavioral testing. All experiments were carried out with the approval of the Animal Care Committee at the Johns Hopkins University and were consistent with the ethical guidelines of the National Institutes of Health and the International Association for the Study of Pain. Male Sprague-Dawley rats (250-300 g) were implanted with an intrathecal PE-10 catheter into the subarachnoid space at the rostral level of the spinal cord lumbar enlargement through an incision at the atlanto-occipital membrane according to the method as described.^25,27 One week or more later, the rats were injected intrathecally with saline or ONDs every 24 h for 4 days. On the fifth day, saline, NMDA, MK-801+NMDA or DNQX+NMDA was given intrathecally. Nociception was evaluated by the radiant heat tail-flick test. The doses and time point of maximal effect of NMDA used in the present study were determined based on a previous study.^24 The tail-flick apparatus (Model 33B Tail Flick Analgesy Meter, IITC Life Science, Woodland Hills, Calif., USA) generated a beam of radiant heat that was focused on the underside of the tail, 5 cm from the tip. A cut-off time latency of 13.5 s was used to avoid tissue damage to the tail. Nociception was assessed by the time required to induce tail-flick after applying radiant heat to the skin of the tail. The latency of reflexive removal of the tail from the heat was measured automatically to the nearest 0.01 s. Tail-flick latency was measured five times, and the basal latency was defined as the mean. Tail-flick data were expressed as percentage change calculated by the formula: (trial latency−baseline latency)/(baseline latency)×100%. Finally, PE-10 catheter position from each animal was confirmed when lumbar enlargement segments were removed for western blot analysis. PCR analysis of PSD-95/SAP90 in rat spinal cord. The cDNA sequences encoding portions of the PSD-95/SAP90 were amplified using the following synthetic OND primers: PSD1 (5′-[…]-3′; SEQ ID NO: 3) and PSD2 (5′-[…]-3′; SEQ ID NO: 4) for amplification of PSD-95/SAP90 codon positions 789-1525. RNA samples (1 μg) from rat spinal cord, brain and muscle were reverse transcribed to generate first-strand cDNA. The PCR reactions were performed for 25 cycles. Each cycle included 30 s at 94° C., 30 s at 55° C., and 30 s at 71° C. The PCR products were directly cloned into the TA cloning vector (Invitrogen Co., San Diego, Calif., USA) and verified by automatic DNA sequencing. Fusion protein construction and preparation. cDNA sequence encoding portion of PSD-95/SAP90 was amplified by PCR and subcloned in-frame into PGEX-2T (GIBCO, Rockville, Md., USA) via the BamHI and EcoRI restriction digest sites. […]

Male Sprague-Dawley rats [4] = experiment: measurement of isoflurane MAC (tail clamp); conditions: saline-treated group, intrathecal NMDA 1.25 μg
Method: The ODNs were dissolved in saline before administration. As described in the previous work,^49 the rats were injected intrathecally with saline (10 μl) (control), antisense ODNs (12.5, 25, 50 μg/10 μl), sense ODN (50 μg/10 μl) and missense ODN (50 μg/10 μl), respectively, followed by an injection of 10 μl of saline to flush the catheter, every 24 h for 4 days.
as §1
A PE-10 catheter was introduced through and beyond the endotracheal tube until obstruction to passage was met and then withdrawn 1 to 2 mm. For isoflurane MAC measurement, the PE-10 catheter was connected to a parameter airway gas monitor (Datex-Engstrom, Inc., Tewksbury, Mass.). After stabilizing about 30 minutes, MAC was measured according to the methods described previously^34 using a long hemostat (8-inch Rochester Dean Hemostatic Forceps) clamped to the first ratchet lock on the tail for 1 min. The tail was always stimulated proximal to a previous test site. Gross movement of the head, extremities, or body was taken as a positive test result, whereas grimacing, swallowing, chewing, or tail flick were considered negative results. The isoflurane concentration was reduced in decrements of 0.12 to 0.15% until the negative response became positive, with 12-15 min equilibration allowed after changes in concentration.^50,51 The MAC was considered to be the concentration midway between the highest concentration that permitted movement in response to the stimulus and the lowest concentration that prevented movement. Finally, intrathecal PE-10 catheter position from each animal was confirmed.
as §2

Structure (SMILES): CN[C@H](CC(=O)O)C(=O)O [NMDA, N-methyl-D-aspartate]
- Grasping (Male Sprague-Dawley rats [1]): 5 (0)
- Placing (Male Sprague-Dawley rats [1]): 5 (0)
- Righting (Male Sprague-Dawley rats [1]): 5 (0)
- Heart rate (Male Sprague-Dawley rats [2]): 529.20±55.20 beats/min
- diastolic blood pressure (Male Sprague-Dawley rats [2]): 118.30±7.81 mmHg
- systolic blood pressure (Male Sprague-Dawley rats [2]): 135.70±3.38 mmHg
- ΔTF latency (%) (Male Sprague-Dawley rats [3]; NMDA alone, intrathecal 10 nM/10 μl): −25.84%
- facilitation of the tail-flick reflex (Male Sprague-Dawley rats [3]; intrathecal NMDA 5 nM/10 μl (data not shown)): induced a facilitation of the tail-flick reflex
- tail-flick latency after NMDA (Male Sprague-Dawley rats [3]; intrathecal NMDA 10 nM/10 μl, baseline 6.58±0.57): 4.88 ± 0.41 s
- increase from isoflurane control MAC (Male Sprague-Dawley rats [4]): 15%

Structure (SMILES): C[C@]12N[C@H](Cc3ccccc31)c1ccccc12 [MK-801]
- facilitation of the tail-flick reflex stimulated by NMDA (Male Sprague-Dawley rats [3]; intrathecal MK-801 10 nM/10 μl): completely abolished
- ΔTF latency (%) (Male Sprague-Dawley rats [3]; intrathecal MK-801 10 nM/10 μl + NMDA): 0.9%

Structure (SMILES): O=[N+]([O-])c1cc2nc(O)c(O)nc2cc1[N+](=O)[O-] [DNQX]
- facilitation of the tail-flick reflex stimulated by NMDA (Male Sprague-Dawley rats [3]; intrathecal DNQX 20 nM/10 μl): had no effect
- ΔTF latency (%) (Male Sprague-Dawley rats [3]; intrathecal DNQX 20 nM/10 μl + NMDA): −22.6%
